From paper PMC6409975, “Functional Characterization of OXYL, A SghC1qDC LacNAc-specific Lectin from The Crinoid Feather Star Anneissia Japonica” (Marine Drugs, 2019)
Values after ≈ are worked out from the molar mass of the structure shown.

Experiments:
OXYL [1] = target: T1, OXYL (Anneissia japonica, UniProt A0A482DHP7); assay: hemagglutination inhibition, rabbit erythrocytes; format: binding; settings: lectin titer 16; TBS with 0.2% Triton X-100; room temperature, 1 h; glutaraldehyde-fixed trypsinized erythrocytes
T1 construct: signal peptide 1-18 removed; mainly tetramer; HiLyte Fluor 555-labelled for glycan array
Description: hemagglutination inhibition, rabbit erythrocytes on OXYL

OXYL [2] = target: T1, OXYL; assay: glycan array, fluorescence-labelled lectin; format: binding; settings: immobilised glycan (1 mM spotted); HiLyte Fluor 555-labelled OXYL 0-20 μg/mL; 4 °C overnight; weaker than LNnT

T1 sequence (A0A482DHP7 entry or part of it): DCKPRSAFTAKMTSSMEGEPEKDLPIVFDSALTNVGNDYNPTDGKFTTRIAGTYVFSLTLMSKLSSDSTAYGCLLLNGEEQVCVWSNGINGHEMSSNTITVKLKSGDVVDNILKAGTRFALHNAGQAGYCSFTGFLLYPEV

Structure (SMILES) | Minimum inhibitory conc. (OXYL [1]) [mM] | glycan array, fluorescence-labelled lectin (OXYL [2])
CC(=O)N[C@H]1C(O)O[C@H](CO)[C@@H](O[C@@H]2O[C@H](CO)[C@H](O)[C@H](O)[C@H]2O)[C@@H]1O (some centres unmarked) [N-acetyllactosamine] | 3.13 (≈ 1200 µg/mL) | –
CC(=O)N[C@H]1[C@H]([C@H](O)[C@H](O)CO)O[C@@](O[C@H]2[C@@H](O)[C@@H](CO)O[C@@H](O[C@H]3[C@H](O)[C@@H](NC(C)=O)C(O)O[C@@H]3CO)[C@@H]2O)(C(=O)O)C[C@@H]1O (some centres unmarked) [compound 2, S3LN] | – | OXYL could bind to 3-sialylated LacNAc more strongly than to 6-sialylated LacNAc
